Test [1] deals with A431 cells (human epidermoid carcinoma). As to the kind of experiment: In vitro tumor cell proliferation assay (Cell Titer-Glo luminescent cell viability), A431. To be noted: A-431, 72 h, 72 hours of drug exposure, ATP luminescence readout, read-out: IC50, anti-proliferative activity (inhibition of cell proliferation). It is filed as cell-based. In outline:
(§1)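 Proliferation inhibition was measured as ATP-dependent luciferase signal after cells in RPMI with 10% FBS received test compound for 72 h at 37° C. Final concentrations spanned […] to 64 pM in 0.1% DMSO; IC50 values were derived.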
Background: Cellular ATP, detected with luciferase, serves as a proxy for viable cell number.

For test [2], the system named is BT474 (human breast carcinoma). Put plainly: In vitro tumor cell proliferation assay (Cell Titer-Glo luminescent cell viability), BT474. The note with it: BT-474, 72 h, BT474 cells, 72 hours of drug exposure, ATP luminescence readout, read-out: IC50, anti-proliferative activity (inhibition of cell proliferation). It is filed as cell-based. In outline:
as §1

pIC50: −log10 of the molar value. Bounds are passed on as bounds.

For `OC[C@H](O)Cn1cc2c(n1)CCc1c-2sc2ncnc(Nc3ccc(F)c(Cl)c3)c12` [Example 44, (R)-3-[6-(3-Chloro-4-fluoro-phenylamino)-4,5-dihydro-10-thia-2,3,7,9-tetraaza-cyclopenta[a]fluoren-2-yl}-propane-1,2-diol], the pIC50 in test [1] is at least 5.30; in test [2], at least 6.00.

As for `CN1CCN(CCn2cc3c(n2)CCc2c-3sc3ncnc(Nc4ccc(Cl)c(Cl)c4)c23)CC1` [Example 45, N-(3,4-dichlorophenyl)-2-[2-(4-methylpiperazin-1-yl)ethyl]-4,5-dihydro-2H-pyrimido[5′,4′:4,5]thieno[2,3-e]indazol-6-amine], the pIC50 is at least 5.30 in test [1] and at least 6.00 in test [2].

With `CN1CCN(CCn2cc3c(n2)CCc2c-3sc3ncnc(Nc4ccc(O)c(Cl)c4)c23)CC1` [Example 46, 2-chloro-4-({2-[2-(4-methylpiperazin-1-yl)ethyl]-4,5-dihydro-2H-pyrimido[5′,4′:4,5]thieno[2,3-e]indazol-6-yl}amino)phenol], the pIC50 in test [1] is at least 4.30; in test [2], at least 5.30.

With `CN1CCN(CCn2cc3c(n2)CCc2c-3sc3ncnc(Nc4ccc(N5CCOCC5)c(Cl)c4)c23)CC1` [Example 48, N-(3-chloro-4-morpholin-4-ylphenyl)-2-[2-(4-methylpiperazin-1-yl)ethyl]-4,5-dihydro-2H-pyrimido[5′,4′:4,5]thieno[2,3-e]indazol-6-amine], the pIC50 in test [1] was at least 4.30; in test [2], at least 5.30.

In the case of `Cc1ccc(Oc2ccc(Nc3ncnc4sc5c(c34)CCc3nn(CCN4CCN(C)CC4)cc3-5)cc2C)cn1` [Example 49, N-{3-methyl-4-[(6-methylpyridin-3-yl)oxy]phenyl}-2-[2-(4-methylpiperazin-1-yl)ethyl]-4,5-dihydro-2H-pyrimido[5′,4′:4,5]thieno[2,3-e]indazol-6-amine], the figures for the pIC50 in test [1] and in test [2] were at least 5.30 and at least 6.00, respectively.

As to `CN1CCN(CCn2cc3c(n2)CCc2c-3sc3ncnc(Nc4ccc(Br)c(Cl)c4)c23)CC1` [Example 50, N-(4-bromo-3-chlorophenyl)-2-[2-(4-methylpiperazin-1-yl)ethyl]-4,5-dihydro-2H-pyrimido[5′,4′:4,5]thieno[2,3-e]indazol-6-amine], the pIC50 in test [1] and in test [2] was at least 5.30 throughout.

In the case of `C#Cc1cccc(Nc2ncnc3sc4c(c23)CCc2nn(CCN3CCN(C)CC3)cc2-4)c1` [Example 51, N-(3-ethynylphenyl)-2-[2-(4-methylpiperazin-1-yl)ethyl]-4,5-dihydro-2H-pyrimido[5′,4′:4,5]thieno[2,3-e]indazol-6-amine], the pIC50 in test [1] was at least 5.30; in test [2] it was at least 4.30.

As to `COc1ccc(Nc2ncnc3sc4c(c23)CCc2nn(CCN3CCN(C)CC3)cc2-4)cc1Cl` [Example 52, N-(3-chloro-4-methoxyphenyl)-2-[2-(4-methylpiperazin-1-yl)ethyl]-4,5-dihydro-2H-pyrimido[5′,4′:4,5]thieno[2,3-e]indazol-6-amine], the pIC50 in test [1] was at least 4.30; in test [2] it was at least 5.30.

For the molecule `CN1CCN(CCn2cc3c(n2)CCc2c-3sc3ncnc(Nc4ccc(OC(F)(F)F)c(Cl)c4)c23)CC1` [Example 53, N-[3-chloro-4-(trifluoromethoxy)phenyl]-2-[2-(4-methylpiperazin-1-yl)ethyl]-4,5-dihydro-2H-pyrimido[5′,4′:4,5]thieno[2,3-e]indazol-6-amine], the pIC50 was at least 5.30 in test [1] and at least 6.00 in test [2].

Regarding `CN1CCN(CCn2cc3c(n2)CCc2c-3sc3ncnc(Nc4ccc(OCc5ccccc5)c(Cl)c4)c23)CC1` [Example 54, N-[4-(benzyloxy)-3-chlorophenyl]-2-[2-(4-methylpiperazin-1-yl)ethyl]-4,5-dihydro-2H-pyrimido[5′,4′:4,5]thieno[2,3-e]indazol-6-amine], the pIC50 in test [1] was at least 5.30; in test [2] it was at least 6.00.

Take `CC(C)(C)[Si](C)(C)OCCn1cc2c(n1)CCc1c-2sc2ncnc(Nc3ccc(OCc4cccc(F)c4)c(Cl)c3)c12` [Example 55, 2-(2-{[tert-butyl(dimethyl)silyl]oxy}ethyl)N-{3-chloro-4-[(3-fluorobenzyl)oxy]phenyl}-4,5-dihydro-2H-pyrimido[5′,4′:4,5]thieno[2,3-e]indazol-6-amine]: the pIC50 is at least 4.30 in test [1] and at least 5.30 in test [2].

Take `OCCn1cc2c(n1)CCc1c-2sc2ncnc(Nc3ccc(OCc4cccc(F)c4)c(Cl)c3)c12` [Example 56, 2-[6-({3-chloro-4-[(3-fluorobenzyl)oxy]phenyl}amino)-4,5-dihydro-2H-pyrimido[5′,4′:4,5]thieno[2,3-e]indazol-2-yl]ethanol]: the pIC50 in test [1] is at least 5.30; in test [2], at least 6.00.

Take `CS(=O)(=O)OCCn1cc2c(n1)CCc1c-2sc2ncnc(Nc3ccc(OCc4cccc(F)c4)c(Cl)c3)c12` [Example 57, 2-[6-({3-chloro-4-[(3-fluorobenzyl)oxy]phenyl}amino)-4,5-dihydro-2H-pyrimido[5′,4′:4,5]thieno[2,3-e]indazol-2-yl]ethyl methanesulfonate]: the pIC50 in test [1] was at least 5.30; in test [2], at least 6.00.

With `CN(C)[C@H]1CCN(CCn2cc3c(n2)CCc2c-3sc3ncnc(Nc4ccc(OCc5cccc(F)c5)c(Cl)c4)c23)C1` [Example 58, N-{3-chloro-4-[(3-fluorobenzyl)oxy]phenyl}-2-{2-[(3S)-3-(dimethylamino)pyrrolidin 1-yl]ethyl}-4,5-dihydro-2H-pyrimido[5′,4′:4,5]thieno[2,3-e]indazol-6-amine], the figures for the pIC50 in test [1] and in test [2] were at least 5.30 and at least 6.00, respectively.

Consider `COCCNCCn1cc2c(n1)CCc1c-2sc2ncnc(Nc3ccc(OCc4cccc(F)c4)c(Cl)c3)c12` [Example 59, N-{3-chloro-4-[(3-fluorobenzyl)oxy]phenyl}-2-{2-[(2-methoxyethyl)amino]ethyl}-4,5-dihydro-2H-pyrimido[5′,4′:4,5]thieno[2,3-e]indazol-6-amine], for which the figures for the pIC50 in test [1] and in test [2] were at least 5.30 and at least 6.00, respectively.

`CN(C)[C@@H]1CCN(CCn2cc3c(n2)CCc2c-3sc3ncnc(Nc4ccc(OCc5cccc(F)c5)c(Cl)c4)c23)C1` [Example 60, N-{3-chloro-4-[(3-fluorobenzyl)oxy]phenyl}-2-{2-[(3R)-3-(dimethylamino)pyrrolidin-1-yl]ethyl}-4,5-dihydro-2H-pyrimido[5′,4′:4,5]thieno[2,3-e]indazol-6-amine]: the figures for the pIC50 in test [1] and in test [2] were at least 5.30 and at least 6.00, respectively.

As to `OCCNCCn1cc2c(n1)CCc1c-2sc2ncnc(Nc3ccc(OCc4cccc(F)c4)c(Cl)c3)c12` [Example 61, 2-({2-[6-({3-chloro-4-[(3-fluorobenzyl)oxy]phenyl}amino)-4,5-dihydro-2H-pyrimido[5′,4′:4,5]thieno[2,3-e]indazol-2-yl]ethyl}amino)ethanol], the pIC50 in test [1] was at least 5.30; in test [2], at least 6.00.

Take `CN1CCN(CCn2cc3c(n2)CCc2c-3sc3ncnc(Nc4ccc(OCc5cccc(F)c5)c(Cl)c4)c23)CC1` [Example 62, N-{3-chloro-4-[(3-fluorobenzyl)oxy]phenyl}-2-[2-(4-methylpiperazin-1-yl)ethyl]-4,5-dihydro-2H-pyrimido[5′,4′:4,5]thieno[2,3-e]indazol-6-amine]: the pIC50 in test [1] is at least 5.30; in test [2], at least 6.00.

With `Fc1cccc(COc2ccc(Nc3ncnc4sc5c(c34)CCc3nn(CCN4CCOCC4)cc3-5)cc2Cl)c1` [Example 63, N-{3-chloro-4-[(3-fluorobenzyl)oxy]phenyl}-2-(2-morpholin-4-ylethyl)-4,5-dihydro-2H-pyrimido[5′,4′:4,5]thieno[2,3-e]indazol-6-amine], the pIC50 was at least 5.30 in test [1] and at least 6.00 in test [2].

Turning to `OCCN(CCO)CCn1cc2c(n1)CCc1c-2sc2ncnc(Nc3ccc(OCc4cccc(F)c4)c(Cl)c3)c12` [Example 64, 2,2′-({2-[6-({3-chloro-4-[(3-fluorobenzyl)oxy]phenyl}amino)-4,5-dihydro-2H-pyrimido[5′,4′:4,5]thieno[2,3-e]indazol-2-yl]ethyl}imino)diethanol], the pIC50 was at least 5.30 in test [1] and at least 6.00 in test [2].

As for `Fc1cccc(COc2ccc(Nc3ncnc4sc5c(c34)CCc3nn(CCN4CCCC4)cc3-5)cc2Cl)c1` [Example 65, N-{3-chloro-4-[(3-fluorobenzyl)oxy]phenyl}-2-(2-pyrrolidin-1-ylethyl)-4,5-dihydro-2H-pyrimido[5′,4′:4,5]thieno[2,3-e]indazol-6-amine], the results for the pIC50 in test [1] and in test [2] were at least 5.30 and at least 6.00, respectively.

In the case of `CN(C)C1CCN(CCn2cc3c(n2)CCc2c-3sc3ncnc(Nc4ccc(OCc5cccc(F)c5)c(Cl)c4)c23)C1` (stereo not drawn) [Example 66, N-{3-chloro-4-[(3-fluorobenzyl)oxy]phenyl}-2-{2-[3-(dimethylamino)pyrrolidin-1-yl]ethyl}-4,5-dihydro-2H-pyrimido[5′,4′:4,5]thieno[2,3-e]indazol-6-amine], the results for the pIC50 in test [1] and in test [2] were at least 5.30 and at least 6.00, respectively.

Consider `CN(C)CCNCCn1cc2c(n1)CCc1c-2sc2ncnc(Nc3ccc(OCc4cccc(F)c4)c(Cl)c3)c12` [Example 67, N′-{2-[6-({3-chloro-4-[(3-fluorobenzyl)oxy]phenyl}amino)-4,5-dihydro-2H-pyrimido[5′,4′:4,5]thieno[2,3-e]indazol-2-yl]ethyl}-N,N-dimethylethane-1,2-diamine], for which the pIC50 in test [1] is at least 5.30; in test [2], at least 6.00.

`Fc1cccc(COc2ccc(Nc3ncnc4sc5c(c34)CCc3nn(CCNCCN4CCOCC4)cc3-5)cc2Cl)c1` [Example 68, N-{3-chloro-4-[(3-fluorobenzyl)oxy]phenyl}-2-{2-[(2-morpholin-4-ylethyl)amino]ethyl}-4,5-dihydro-2H-pyrimido[5′,4′:4,5]thieno[2,3-e]indazol-6-amine]: the pIC50 was at least 5.30 in test [1] and at least 6.00 in test [2].

(Values after US8207172B2 (Bayer Intellectual Property GmbH, priority 2004, dated 2012).)
